# Experimental data published in the supplement of paper PMC10307832.
# Key:
# Assay in all cases: relative viability (nuclei count vs DMSO), 5 days (fraction); higher = more cells survive
# [1] = compound: COc1cc2c(Oc3ccc4[nH]c(C)cc4c3F)ncnc2cc1OCCCN1CCCC1 [Cediranib] + CC(C)C[C@H](NC(=O)[C@H](Cc1ccccc1)NC(=O)c1cnccn1)B(O)O [Bortezomib] (partner 0.002 µM)
# How it was run: (§1)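 Lung cancer cell lines in 1536-well plates were dosed by pin tool the day after seeding, either with one drug alone or with a fixed anchor-drug dose plus five library-drug doses (not always all listed) in √10 steps. After 5 days, cells were fixed and their nuclei stained in one step (final 0.05% Triton X-100, 1% formaldehyde, 1 ug/ml Hoechst), then counted on 4× images. Relative viability is the nuclei count in treated wells divided by that in vehicle wells. Values are medians of duplicate plates.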
# [2] = compound: O=C(C[C@H]1NCCC[C@@H]1O)Cn1cnc2cc(Br)c(Cl)cc2c1=O (racemic) [Halofuginone] + CS(=O)(=O)N1CCN(Cc2cc3nc(-c4cccc5[nH]ncc45)nc(N4CCOCC4)c3s2)CC1 [Pictilisib] (partner 1 µM)
# How it was run: as §1
# [3] = compound: COc1cc2c(Oc3ccc4[nH]c(C)cc4c3F)ncnc2cc1OCCCN1CCCC1 [Cediranib] + CC1(C)CCC(c2ccc(Cl)cc2)=C(CN2CCN(c3ccc(C(=O)NS(=O)(=O)c4ccc(N[C@H](CCN5CCOCC5)CSc5ccccc5)c(S(=O)(=O)C(F)(F)F)c4)cc3)CC2)C1 [Navitoclax] (partner 0.5 µM)
# How it was run: as §1
# [4] = compound: Nc1ncn([C@H]2C[C@H](O)[C@@H](CO)O2)c(=O)n1 [Decitabine] + Cc1cc(Nc2cc(N3CCN(C)CC3)nc(Sc3ccc(NC(=O)C4CC4)cc3)n2)n[nH]1 [Tozasertib] (partner 0.1 µM)
# How it was run: as §1
Cell Line,relative viability ([1]; first compound 0.04 µM),relative viability ([1]; first compound 0.1265 µM),relative viability ([1]; first compound 0.4 µM),relative viability ([1]; first compound 1.265 µM),relative viability ([1]; first compound 4 µM),relative viability ([2]; first compound 0.001 µM),relative viability ([2]; first compound 0.003162 µM),relative viability ([2]; first compound 0.01 µM),relative viability ([2]; first compound 0.03162 µM),relative viability ([2]; first compound 0.1 µM),relative viability ([3]; first compound 0.04 µM),relative viability ([3]; first compound 0.1265 µM),relative viability ([3]; first compound 0.4 µM),relative viability ([3]; first compound 1.265 µM),relative viability ([3]; first compound 4 µM),relative viability ([4]; first compound 0.04 µM),relative viability ([4]; first compound 0.1265 µM),relative viability ([4]; first compound 0.4 µM),relative viability ([4]; first compound 1.265 µM),relative viability ([4]; first compound 4 µM)
LOU-NH91,0.409,0.475,0.517,0.513,0.488,0.574,0.51,0.503,0.52,0.514,0.673,0.635,0.665,0.706,0.544,0.444,0.606,0.522,0.464,0.512
SW 900,,,,,,,,,,,,,,,,0.288,0.297,0.222,0.182,0.15
LCLC-103H,0.989,1.12,0.921,1.14,1.11,0.627,0.605,0.601,0.668,0.685,,,,,,0.485,0.463,0.308,0.369,0.253
NCI-H1915,0.989,0.914,0.958,0.949,0.984,0.917,1.04,0.915,0.861,0.882,0.787,0.721,0.805,0.788,0.811,0.274,0.224,0.174,0.175,0.189
IA-LM,1.01,1.14,0.926,0.771,0.912,0.415,0.26,0.288,0.256,0.057,0.875,0.921,0.652,0.672,1.09,,,,,
NCI-H1734,0.831,0.814,0.806,0.837,1.24,0.46,0.492,0.403,0.449,0.327,0.759,0.83,0.846,0.807,0.842,0.265,0.246,0.221,0.206,0.192
SK-MES-1,,,,,,0.366,0.358,0.362,0.211,0.145,1.23,1.36,1.13,1.21,1.2,0.698,0.608,0.332,0.238,0.255
Calu-6,1.03,0.977,1.05,0.968,1.03,0.968,0.873,0.849,0.327,0.11,0.876,0.86,0.898,0.788,0.819,,,,,
HCC-15,1.06,,1,1.12,1.01,0.721,0.852,0.7,0.857,0.673,0.742,,0.693,0.678,0.767,0.308,0.388,0.345,0.213,0.175
NCI-H661,0.907,1.11,0.793,0.805,1.16,0.496,0.355,0.365,0.408,0.444,,,,,,0.345,0.33,0.341,0.318,0.348
NCI-H1395,,,,,,0.625,0.674,0.86,0.578,0.54,1.23,,1.23,1.13,1.05,0.549,0.517,0.487,0.445,0.453
NCI-H1944,,,,,,0.317,0.398,0.347,0.35,0.307,1.08,1.11,0.95,0.981,1.01,0.234,0.268,0.22,0.201,0.186
NCI-H2342,,,,,,,,,,,,,,,,0.495,0.502,0.552,0.385,0.362
NCI-H1793,,,,,,0.329,0.216,0.33,0.381,0.228,0.59,0.468,0.461,,0.46,0.288,0.335,0.247,0.226,0.207
NCI-H1299,1.06,1.06,1.03,1.03,1.04,1.01,0.806,0.619,0.232,0.077,1.07,1.02,1.03,1.07,1.08,,,,,
NCI-H522,,,,,,,,,,,,,,,,0.538,0.624,0.376,0.446,0.37
NCI-H1623,,,,,,,,,,,,,,,,0.401,0.422,0.367,0.373,0.305
NCI-H2170,,,,,,0.311,0.313,0.313,0.32,0.26,0.691,0.671,0.567,0.61,0.713,0.447,0.472,0.347,0.298,0.217
NCI-H1648,,,,,,,,,,,,,,,,0.519,0.402,0.321,0.172,0.184
NCI-H1703,0.309,0.294,0.192,0.181,0.206,0.252,0.264,0.247,0.214,0.193,1.11,0.916,0.287,0.237,0.238,,,,,
ABC-1,0.33,0.272,0.307,,0.305,0.415,0.922,0.836,0.728,0.51,,,,,,0.211,0.185,0.174,0.195,0.21
NCI-H650,0.873,0.625,0.879,0.764,0.718,0.956,0.953,1.02,0.801,0.566,,,,,,0.562,0.468,0.372,0.264,0.245
LK-2,,,,,,0.577,0.792,0.531,0.664,0.532,1,0.848,0.768,0.828,0.861,0.168,0.166,0.182,0.155,0.19
